Reference: patent US20120029054A1, “RNA Interference Mediated Inhibition of GATA Binding Protein 3 (GATA3) Gene Expression Using Short Intefering Nucleic Acid (siNA)” (Merck Sharp & Dohme Corp., priority 2009, published 2012)
[invAb] = inverted abasic unit; m = 2'-O-methyl; r = 2'-OH (RNA); f = 2'-fluoro

Legend:
GATA3 mRNA [1] = assay: GATA3 mRNA knock-down (Taqman qRT-PCR) after RNAiMax transfection of mouse RAG cells; type: cell-based; settings: 10 nM siNA, 24 hrs, average of 2 experiments
Description: RAG (murine; ATCC cat# CCL-142): Cells were cultured at 37° C. in the presence of 5% CO2 and grown in Eagle's Minimum Essential medium with supplemented with 10% of fetal bovine serum, 100 μg/mL of streptomycin, and 100 U/mL penicillin.
(§1) Cells were plated in all wells of a tissue-culture treated, 96-well plate at a final count of 5000 cells/well in 100 μL of the appropriate culture media. The cells were cultured for 24 hours after plating at 37° C. in the presence of 5% CO2.
(§2) After 24 hours, complexes containing siNA and RNAiMax were created as follows: A solution of RNAiMax diluted 33-fold in OPTI-MEM was prepared. In parallel, solutions of the siNAs for testing were prepared to a final concentration of 120 nM in OPTI-MEM. After incubation of RNAiMax/OPTI-MEM solution at room temperature for 5 min, an equal volume of the siNA solution and the RNAiMax solution were added together for each of the siNAs.
(§3) This solution was incubated at room temperature for 20 minutes. After incubation, 20 uL of the solution was added to each of the relevant wells. The final concentration of siNA in each well was 10 nM and the final volume of RNAiMax in each well was 0.3 ul.
(§4) The time of incubation with the RNAiMax-siNA complexes was 24 hours and there was no change in media between transfection and harvesting, unless otherwise indicated.
(§5) RNA was extracted from a 96-well plate using the TaqMan® Gene Expression Cells-to-CT™ Kit (Cat#4399002) with a modified protocol. Briefly, a 60 uL (1 plate) or 110 uL (2 plates) of the Lysis Solution with DNase I was dispensed into each well of the Lysis Buffer Plate (twin.tec full skirt plate). The lysis buffer and stop plates were stored at 4° C. until the cells were washed.
(§6) The plate was spun at 1100 rpm for 5 minutes. The culture medium was aspirated and discarded from the wells of the culture plate. The lysis was performed automatically using a BioMek FX instrument and method. After the Biomek method was completed, the lysis plate was incubated for 2 min. at room temperature. The lysis plate can be stored for 2 hours at 4° C., or at −20° C. or −80° C. for two months.
(§7) Each well of the reverse transcription plate required 10 uL of 2× reverse transcriptase Buffer, 1 uL of 20× reverse transcription enzyme and 2 uL of nuclease-free water. The reverse transcription master mix was prepared by mixing 2× reverse transcription buffer, 20× reverse transcription enzyme mix, and nuclease-free water. 13 uL of the reverse transcription master mix was dispensed into each well of the reverse transcription plate (semi-skirted). A separate reverse transcription plate was prepared for each cell plate. The plate was loaded onto a Biomek NX or Biomek FX Dual-96 and the Biomek method was run. The program is programmed to automatically added 7 uL of lysate from the cell lysis procedure described above into each well of the reverse transcription plate. The plate is sealed and spun on a centrifuge (1000 rpm for 30 seconds) to settle the contents to the bottom of the reverse transcription plate. The plate is placed in a thermocycler at 37° C. for 60 min, 95° C. for 5 min, and 4° C. until the plate is removed from the thermocycler. Upon removal, if not used immediately, the plate was frozen at −20° C.
(§8) A series of probes and primers were used to detect the various mRNA transcripts of the genes of β-Actin (human cell line only), and of GATA3 and GAPDH in mouse and human cell lines. All Taqman probes and primers for the experiments here-in described were supplied as pre-validated sets by Applied Biosystems, Inc. (see Table 2).
(§9) The assays were performed on an ABI 7900 instrument, according to the manufacturer's instructions. A TaqMan Gene Expression Master Mix (provided in the Cells-to-CT™, Applied Biosystems, Cat #4399002) was used. The PCR reactions were carried out at 50° C. for 2 min, 95° C. for 20 min followed by 40 cycles at 95° C. for 15 secs and 60° C. for 1 min. […]

GATA3 mRNA [2] = assay: GATA3 mRNA knock-down (Taqman qRT-PCR) after RNAiMax transfection of human MCF7 cells; screen and IC50 dose response; type: cell-based; settings: 10 nM siNA, MCF7 cells, 24 hrs
Description: MCF7 (human; ATCC cat# HTB-22): Cells were cultured at 37° C. in the presence of 5% CO2 and grown in Eagle's Minimum Essential medium with supplemented with fetal bovine serum at a final concentration of 10% and 100 μg/mL of streptomycin and 100 U/mL penicillin.
as §1, §2, §3, §4, §5, §6, §7, §8, §9

Row | Substance | % KD Mouse (GATA3 mRNA [1]) [%] | % KD Human (GATA3 mRNA [2]; average of 3 experiments) [%] | % KD Human (GATA3 mRNA [2]; * Hs00231122_m1 Taqman Assay) | % KD Human (GATA3 mRNA [2]; ** Hs00922328_m1 Taqman Assay)
1 | 30264-DC: GATA3 siNA duplex, site 690: sense B GAGGAGGuGGAuGuGcuuu TTB (SEQ 81), antisense AAAGcAcAuccAccuccucUU (SEQ 82) (sense GAGGAGGUGGAUGUGCUUUTT; antisense AAAGCACAUCCACCUCCUCUU; chemistry not fully specified) | −18 ± 0 | −20 ± 12 | – | –
2 | 30265-DC: GATA3 siNA duplex, mouse site 2025: sense B GcccGAAAGcGAcAGAucu TTB (SEQ 83), antisense AGAucuGucGcuuucGGGcUU (SEQ 84) (sense GCCCGAAAGCGACAGAUCUTT; antisense AGAUCUGUCGCUUUCGGGCUU; chemistry not fully specified) | 58 ± 0 | −8 ± 13 | – | –
3 | 30266-DC: GATA3 siNA duplex, mouse site 1258: sense B cccuAuGuGcccGAGuAcA TTB (SEQ 85), antisense UGUAcucGGGcAcAuAGGGUU (SEQ 86) (sense CCCUAUGUGCCCGAGUACATT; antisense UGUACUCGGGCACAUAGGGUU; chemistry not fully specified) | 8 ± 5 | −3 ± 5 | – | –
4 | 30267-DC: GATA3 siNA duplex, mouse site 1324: sense B GGGuucGGAuGuAAGucGA TTB (SEQ 87), antisense UCGAcuuAcAuccGAAcccUU (SEQ 88) (sense GGGUUCGGAUGUAAGUCGATT; antisense UCGACUUACAUCCGAACCCUU; chemistry not fully specified) | 40 ± 1 | −13 ± 15 | – | –
5 | 30268-DC: GATA3 siNA duplex, mouse site 1533: sense B GAcAuccuGcGcGaacuGu TTB (SEQ 89), antisense ACAGuucGcGcAGGAuGucUU (SEQ 90) (sense GACAUCCUGCGCGAACUGUTT; antisense ACAGUUCGCGCAGGAUGUCUU; chemistry not fully specified) | 17 ± 2 | 16 ± 3 | – | –
6 | 30269-DC: GATA3 siNA duplex, mouse site 1449: sense B cuGcGGAcucuAccAuAAA TTB (SEQ 91), antisense UUUAuGGuAGAGuccGcAGUU (SEQ 92) (sense CUGCGGACUCUACCAUAAATT; antisense UUUAUGGUAGAGUCCGCAGUU; sense: DNA at AGT, 2'-fluoro at CU, [invAb] at 5' end, 3' end, backbone not given here; antisense: sugars from the 5' end rrrmfmmfmmmmfffmfmmmm, backbone not given here) | 83 ± 0 | −36 ± 9 | – | –
7 | 30270-DC: GATA3 siNA duplex, mouse site 1960: sense B ccAAGuGuGcGAAGAGuuc TTB (SEQ 93), antisense GAAcucuucGcAcAcuuGGUU (SEQ 94, row printed as 30269-DC) (sense CCAAGUGUGCGAAGAGUUCTT; antisense GAACUCUUCGCACACUUGGUU; chemistry not fully specified) | 69 ± 4 | −25 ± 24 | – | –
8 | 30271-DC: GATA3 siNA duplex, mouse site 1620: sense B GuAcuAcAAGcuucAuAAu TTB (SEQ 95), antisense AUUAuGAAGcuuGuAGuAcUU (SEQ 96) (sense GUACUACAAGCUUCAUAAUTT; antisense AUUAUGAAGCUUGUAGUACUU; chemistry not fully specified) | 70 ± 0 | 10 ± 11 | – | –
9 | 30272-DC: GATA3 siNA duplex, mouse site 807: sense B GAGGuAuccuccGAcccAc TTB (SEQ 97), antisense GUGGGucGGAGGAuAccucUU (SEQ 98) (sense GAGGUAUCCUCCGACCCACTT; antisense GUGGGUCGGAGGAUACCUCUU; chemistry not fully specified) | 85 ± 0 | – | 69 ± 3* % | 33 ± 19** %
